Where no end group is shown, it is not given here.
How the values were obtained:
Aedes aegypti [1] = experiment: Inhibition of egg (ovarian) development after injection into blood-fed females; type: in vivo; conditions: for Inhibition of egg development / Yolk length: 24 hours; for Effect compared with natural, purified oostatic hormone: injection
Protocol: (§1) Female insects were injected with 0.5 μl to 1.0 μl hormone solution
(§2) of analog 1 or saline and analyzed 24 hours later for egg development.
(§3) The insects were evaluated for the effect of oostatic hormone 24 hours after injecting the hormone by dissecting out the ovaries and measuring the yolk in each follicle, or by dissecting out the midgut and determining trypsin biosynthesis as was described by Borovsky, D. (1988), Arch. Insect Biochem. Physiol. 8:249-260. We believe that we have discovered an effective method that can interfere with the biosynthesis of serine esterases (trypsinlike or chymotrypsinlike enzymes) in the midgut of insects.
(§4) (a) Female Aedes aegypti were fed blood on a chicken, lightly anesthetized with ether, and immediately injected with different concentrations (1 to 5 μg; 0.25 to 0.5 μl) of synthetic analogs of oostatic hormone (1 and 2). […] Twenty-four hours after the injection of oostatic hormone analogs, or water as a control, egg development and trypsinlike enzyme biosynthesis was determined (Borovsky, D. (1988), Arch, Ins. Biochem. Physiol. 7:187-210). (See Table 2)
Groups of female Aedes aegypti were injected with 0.5 to 0.25 μl of
oostatic hormone analogs, or with 0.5 μl of water as control.

Aedes aegypti [2] = experiment: Toxicity (mortality) of injected mosquitoes; type: in vivo; conditions: 1 to 5 μg injected in 0.25 to 0.5 μl
Protocol: as §4

houseflies = experiment: Topical application in DMSO; type: in vivo; conditions: 10 to 20 μg topically in 1 to 10 μl of DMSO; 24 hours after treatment
Protocol: (§5) (b) Another procedure was to dissolve oostatic hormone analogs (1) or (2) in a solvent that might facilitate transport through the cuticular barrier into hemolymph. Dimethylsulfoxide was used and 10 to 20 μg of (1) or (2) was applied topically to houseflies and stableflies in 1 to 10 μl of DMSO.

stableflies = experiment: Topical application in DMSO; type: in vivo; conditions: 10 to 20 μg topically in 1 to 10 μl of DMSO; 24 hours after treatment
Protocol: as §5

[3] = test system: trypsinlike enzymes biosynthesis; experiment: Inhibition of trypsin synthesis after injection; type: in vivo, Stomoxys calcitrans; conditions: 4.77 nmol injected; 24 hours later
Protocol: as §1, §2, §3

[4] = test system: trypsinlike enzymes biosynthesis; experiment: Inhibition of trypsin synthesis after injection; type: in vivo, Lutzomyia anthophora; conditions: 0.477 nmol injected; 24 hours later
Protocol: as §1, §2, §3

Anopheles albimanus = experiment: Inhibition of ovarian development after injection; type: in vivo; conditions: 1.83 nmol injected; 24 hours later
Protocol: as §1, §2, §3

Lutzomyia anthophora = experiment: Inhibition of ovarian development after injection; type: in vivo; conditions: 0.477 nmol injected; 24 hours later
Protocol: as §1, §2, §3

Culex quinquefasciatus = experiment: Inhibition of ovarian development after injection; type: in vivo; conditions: 3.6 nmol injected; 24 hours later
Protocol: as §1, §2, §3

[5] = test system: trypsinlike enzymes biosynthesis; experiment: Inhibition of trypsin synthesis after injection; type: in vivo, Musca domestica; conditions: 4.77 nmol injected; 24 hours later
Protocol: as §1, §2, §3

[6] = test system: trypsinlike enzymes biosynthesis; experiment: Inhibition of trypsinlike enzyme biosynthesis in the midgut after injection; type: in vivo, Aedes aegypti; conditions: 2.86 nmol injected; 24 hours later
Protocol: as §1, §2, §3, §4

[7] = type: in vitro ADME, mosquito
Source text: The structure of these peptides render them undigestible with known endopeptidases (i.e. proteolytic enzymes like trypsin, pronase, etc.). The peptides were not affected by 1% trifluoroacetic acid and were routinely purified using this acid on HPLC. DNA sequences encoding the peptides of the invention can be used as probes to locate the genes expressing these peptides.

[8] = test system: trypsinlike enzymes biosynthesis; experiment: Inhibition of trypsin synthesis after injection; type: in vivo, Ctenocephalides felis (bouche); conditions: 0.477 nmol injected; 24 hours later
Protocol: as §1, §2, §3

DYPAPPPPPP [analog 2, H2 NDYPAP6 COOH]
Inhibition of egg development (Aedes aegypti [1]; 0.96 μg (0.92 nmol) injected): 62%
Yolk length (Aedes aegypti [1]; 0.96 μg (0.92 nmol) injected): 102 ± 11 μm
Inhibition of egg development (Aedes aegypti [1]; 1.92 μg (1.83 nmol) injected): 96%
Yolk length (Aedes aegypti [1]; 1.92 μg (1.83 nmol) injected): 55 ± 11 μm
Effect compared with natural, purified oostatic hormone (Aedes aegypti [1]): same effect as injection of natural, purified oostatic hormone
Toxicity: death of injected mosquitoes (Aedes aegypti [2]): none of the injected mosquitoes died
Activity (sterilization through inhibition of trypsin-like enzyme synthesis) (houseflies): Some evidence of activity
Activity (sterilization through inhibition of trypsin-like enzyme synthesis) (stableflies): Some evidence of activity

YDPAPPPPPP [analog 1, H2 NYDPAP6 COOH]
Inhibition of trypsin synthesis [3]: 50%
Inhibition of trypsin synthesis [4]: 30%
Inhibition of ovarian development (Anopheles albimanus): 100%
Inhibition of ovarian development (Lutzomyia anthophora): 50%
Inhibition of ovarian development (Culex quinquefasciatus): 91%
Inhibition of ovarian development (Aedes aegypti [1]; 2.86 nmol injected, analyzed 24 hours later): 98%
Inhibition of egg development (Aedes aegypti [1]; 1.20 μg (1.15 nmol) injected): 76%
Yolk length (Aedes aegypti [1]; 1.20 μg (1.15 nmol) injected): 82 ± 3 μm
Inhibition of egg development (Aedes aegypti [1]; 2.44 μg (2.33 nmol) injected): 98%
Yolk length (Aedes aegypti [1]; 2.44 μg (2.33 nmol) injected): 53 ± 3 μm
Effect compared with natural, purified oostatic hormone (Aedes aegypti [1]): same effect as injection of natural, purified oostatic hormone
Inhibition of trypsin synthesis [5]: 85%
Toxicity: death of injected mosquitoes (Aedes aegypti [2]): none of the injected mosquitoes died
Inhibition of trypsin synthesis [6]: 86%
Loss of activity on standing in mosquito homogenate [7]: without loss of activity
Inhibition of trypsin synthesis [8]: 50%
Activity (sterilization through inhibition of trypsin-like enzyme synthesis) (houseflies): Some evidence of activity
Activity (sterilization through inhibition of trypsin-like enzyme synthesis) (stableflies): Some evidence of activity

— patent US5130253A, “DNAs Encoding mosquito oostatic hormones” (University of Florida, priority 1991, dated 1992)
